Data on 2 compounds can be found in patent EP4467141A1, “PYRAZOLO-QUINOLINES AS SELECTIVE INHIBITORS OF GENOTOXIC STRESS-INDUCED IKK/NF- KB PATHWAYS FOR CANCER THERAPY” (Max-Delbrück-Centrum für Molekulare Medizin in der …, priority 2023, dated 2024).

What all share (assay): Kinase panel study
Common to all, as to type: biochemical
What all share (settings): read-out: Percentage of inhibition; for inhibition at 1 µM: 1000nM; for inhibition at 10 µM: 10000nM

In one assay the target is T1, EGFR (ErbB1) G719S (Homo sapiens, UniProt P00533, G719S).
T1 construct: purchased Thermo Fisher Scientific
In short, it runs like this: (§1)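 Lead compounds and derivatives were profiled by ZLyte or Adapta in vitro kinase assays. Each value reports inhibition percentage at one of two concentrations, 1 µM or 10 µM.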

A further assay has as its target T2, EPHA1 (Homo sapiens, UniProt P21709).
T2 construct: purchased Thermo Fisher Scientific
T2 sequence (P21709 26-976): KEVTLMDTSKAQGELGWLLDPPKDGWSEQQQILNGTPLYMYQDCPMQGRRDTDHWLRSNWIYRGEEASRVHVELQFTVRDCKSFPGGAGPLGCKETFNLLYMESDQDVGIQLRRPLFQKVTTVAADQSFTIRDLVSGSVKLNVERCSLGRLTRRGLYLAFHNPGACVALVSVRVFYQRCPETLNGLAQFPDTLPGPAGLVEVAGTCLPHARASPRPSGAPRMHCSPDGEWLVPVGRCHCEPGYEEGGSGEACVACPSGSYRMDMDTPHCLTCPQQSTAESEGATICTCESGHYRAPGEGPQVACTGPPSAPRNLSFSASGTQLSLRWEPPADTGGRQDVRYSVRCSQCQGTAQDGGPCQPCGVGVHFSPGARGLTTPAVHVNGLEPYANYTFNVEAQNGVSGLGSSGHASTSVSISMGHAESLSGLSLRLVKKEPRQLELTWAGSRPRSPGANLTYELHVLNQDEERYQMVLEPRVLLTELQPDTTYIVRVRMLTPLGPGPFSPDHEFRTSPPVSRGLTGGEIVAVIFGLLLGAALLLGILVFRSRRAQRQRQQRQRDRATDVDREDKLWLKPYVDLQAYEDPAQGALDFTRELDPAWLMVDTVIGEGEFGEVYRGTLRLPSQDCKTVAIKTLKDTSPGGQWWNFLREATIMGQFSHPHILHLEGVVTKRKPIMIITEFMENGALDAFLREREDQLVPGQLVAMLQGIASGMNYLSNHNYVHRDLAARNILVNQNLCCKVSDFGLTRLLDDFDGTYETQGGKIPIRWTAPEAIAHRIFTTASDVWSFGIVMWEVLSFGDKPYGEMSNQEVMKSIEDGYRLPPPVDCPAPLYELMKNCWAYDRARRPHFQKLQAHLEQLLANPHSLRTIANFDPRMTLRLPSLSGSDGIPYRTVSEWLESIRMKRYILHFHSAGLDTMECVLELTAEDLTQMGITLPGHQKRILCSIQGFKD
The procedure, abridged: as §1

The target of another assay is T3, FGFR3 (Homo sapiens, UniProt P22607).
T3 construct: purchased Thermo Fisher Scientific
In short, it runs like this: as §1

The next assay concerns the target T4, LRRK2 R1441C (Homo sapiens, UniProt Q5S007, R1441C).
T4 construct: purchased Thermo Fisher Scientific
In short, it runs like this:
as §1

For another assay, the target named is T5, MAPK3 (ERK1) (Homo sapiens, UniProt P27361).
T5 construct: purchased Thermo Fisher Scientific
In short, it runs like this: as §1

For a further assay, the target named is T6, MARK1 (MARK) (Homo sapiens, UniProt Q9P0L2).
T6 construct: purchased Thermo Fisher Scientific
In short, it runs like this:
as §1

For a further assay, the target named is T7, PRKACA (PKA) (Homo sapiens, UniProt P17612).
T7 construct: purchased Thermo Fisher Scientific
The procedure, abridged: as §1

T5 sequence (P27361 whole entry): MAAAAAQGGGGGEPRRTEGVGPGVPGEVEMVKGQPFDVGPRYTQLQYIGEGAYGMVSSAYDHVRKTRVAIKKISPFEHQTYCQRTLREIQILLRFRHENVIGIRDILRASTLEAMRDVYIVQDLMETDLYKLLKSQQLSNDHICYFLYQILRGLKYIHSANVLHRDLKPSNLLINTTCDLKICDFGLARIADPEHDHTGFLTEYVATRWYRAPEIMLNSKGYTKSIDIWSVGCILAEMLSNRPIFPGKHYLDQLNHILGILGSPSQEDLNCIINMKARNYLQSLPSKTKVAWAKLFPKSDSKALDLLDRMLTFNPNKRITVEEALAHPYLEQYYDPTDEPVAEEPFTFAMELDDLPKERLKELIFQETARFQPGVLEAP
T4 sequence (Q5S007 970-2527 R1441C limits assumed): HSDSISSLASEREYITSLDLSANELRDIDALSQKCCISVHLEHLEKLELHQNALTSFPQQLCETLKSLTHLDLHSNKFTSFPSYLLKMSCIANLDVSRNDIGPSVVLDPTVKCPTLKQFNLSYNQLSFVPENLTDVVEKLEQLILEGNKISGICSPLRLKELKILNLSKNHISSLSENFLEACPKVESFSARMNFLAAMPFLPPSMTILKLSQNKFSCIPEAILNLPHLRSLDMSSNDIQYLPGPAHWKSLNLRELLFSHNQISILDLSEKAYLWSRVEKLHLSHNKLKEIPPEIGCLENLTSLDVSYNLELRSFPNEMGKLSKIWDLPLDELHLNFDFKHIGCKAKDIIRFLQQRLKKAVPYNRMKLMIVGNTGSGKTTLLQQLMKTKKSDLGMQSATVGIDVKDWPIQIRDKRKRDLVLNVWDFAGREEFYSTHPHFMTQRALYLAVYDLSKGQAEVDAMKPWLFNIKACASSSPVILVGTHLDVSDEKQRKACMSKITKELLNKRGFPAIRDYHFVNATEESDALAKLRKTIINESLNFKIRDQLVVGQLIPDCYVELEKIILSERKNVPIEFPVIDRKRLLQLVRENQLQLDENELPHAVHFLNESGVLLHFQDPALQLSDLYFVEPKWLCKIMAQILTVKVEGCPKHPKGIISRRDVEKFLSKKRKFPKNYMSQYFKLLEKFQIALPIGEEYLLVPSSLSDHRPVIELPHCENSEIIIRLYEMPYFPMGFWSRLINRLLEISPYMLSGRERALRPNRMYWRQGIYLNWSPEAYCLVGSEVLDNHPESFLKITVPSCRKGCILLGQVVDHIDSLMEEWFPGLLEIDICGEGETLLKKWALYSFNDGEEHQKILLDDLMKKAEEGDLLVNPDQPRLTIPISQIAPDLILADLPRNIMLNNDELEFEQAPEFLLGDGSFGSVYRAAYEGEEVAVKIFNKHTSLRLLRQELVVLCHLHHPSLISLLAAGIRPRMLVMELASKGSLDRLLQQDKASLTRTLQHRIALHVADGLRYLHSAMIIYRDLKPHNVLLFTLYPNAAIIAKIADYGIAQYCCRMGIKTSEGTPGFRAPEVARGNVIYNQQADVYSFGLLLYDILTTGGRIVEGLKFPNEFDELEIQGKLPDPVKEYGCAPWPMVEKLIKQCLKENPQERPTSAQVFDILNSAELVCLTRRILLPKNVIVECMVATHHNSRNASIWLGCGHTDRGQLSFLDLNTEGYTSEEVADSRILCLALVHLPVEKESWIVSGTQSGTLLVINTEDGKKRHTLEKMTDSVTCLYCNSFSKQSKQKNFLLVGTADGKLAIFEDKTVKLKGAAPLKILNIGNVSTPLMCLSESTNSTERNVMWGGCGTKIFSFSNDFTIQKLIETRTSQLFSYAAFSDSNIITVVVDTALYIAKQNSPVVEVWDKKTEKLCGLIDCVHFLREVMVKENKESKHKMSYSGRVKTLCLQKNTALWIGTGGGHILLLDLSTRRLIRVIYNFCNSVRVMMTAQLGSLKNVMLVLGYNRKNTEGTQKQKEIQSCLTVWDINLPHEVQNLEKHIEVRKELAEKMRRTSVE
T1 sequence (P00533 25-1210 G719S): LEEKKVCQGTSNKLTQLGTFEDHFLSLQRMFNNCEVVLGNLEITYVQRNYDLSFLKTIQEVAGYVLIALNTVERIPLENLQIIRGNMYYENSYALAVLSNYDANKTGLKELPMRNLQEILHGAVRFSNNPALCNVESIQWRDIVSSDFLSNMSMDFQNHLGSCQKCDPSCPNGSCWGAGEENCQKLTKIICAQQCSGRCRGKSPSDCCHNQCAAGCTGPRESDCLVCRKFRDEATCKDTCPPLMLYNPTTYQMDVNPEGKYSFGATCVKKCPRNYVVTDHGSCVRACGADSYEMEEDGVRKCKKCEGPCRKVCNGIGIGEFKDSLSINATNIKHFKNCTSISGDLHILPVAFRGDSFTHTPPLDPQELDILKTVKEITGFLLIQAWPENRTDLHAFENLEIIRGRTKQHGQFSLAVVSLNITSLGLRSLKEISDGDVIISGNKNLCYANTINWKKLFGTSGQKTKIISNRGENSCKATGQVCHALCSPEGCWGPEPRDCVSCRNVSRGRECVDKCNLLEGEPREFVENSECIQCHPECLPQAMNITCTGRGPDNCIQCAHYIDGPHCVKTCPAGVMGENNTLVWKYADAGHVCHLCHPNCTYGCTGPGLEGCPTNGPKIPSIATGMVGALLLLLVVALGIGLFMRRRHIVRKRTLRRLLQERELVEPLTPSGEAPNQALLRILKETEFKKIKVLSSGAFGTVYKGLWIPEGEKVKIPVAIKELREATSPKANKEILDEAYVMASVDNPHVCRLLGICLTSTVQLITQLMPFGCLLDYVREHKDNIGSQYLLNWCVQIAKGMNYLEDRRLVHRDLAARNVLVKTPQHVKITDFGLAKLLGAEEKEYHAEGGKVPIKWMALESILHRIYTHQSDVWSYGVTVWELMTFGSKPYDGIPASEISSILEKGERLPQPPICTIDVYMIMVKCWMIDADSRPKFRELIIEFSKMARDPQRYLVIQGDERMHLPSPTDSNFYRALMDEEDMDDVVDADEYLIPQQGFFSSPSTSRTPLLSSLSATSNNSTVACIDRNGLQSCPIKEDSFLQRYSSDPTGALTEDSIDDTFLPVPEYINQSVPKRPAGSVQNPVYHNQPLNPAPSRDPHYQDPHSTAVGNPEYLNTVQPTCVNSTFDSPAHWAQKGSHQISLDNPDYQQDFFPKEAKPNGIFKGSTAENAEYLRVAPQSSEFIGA
T6 sequence (Q9P0L2 whole entry): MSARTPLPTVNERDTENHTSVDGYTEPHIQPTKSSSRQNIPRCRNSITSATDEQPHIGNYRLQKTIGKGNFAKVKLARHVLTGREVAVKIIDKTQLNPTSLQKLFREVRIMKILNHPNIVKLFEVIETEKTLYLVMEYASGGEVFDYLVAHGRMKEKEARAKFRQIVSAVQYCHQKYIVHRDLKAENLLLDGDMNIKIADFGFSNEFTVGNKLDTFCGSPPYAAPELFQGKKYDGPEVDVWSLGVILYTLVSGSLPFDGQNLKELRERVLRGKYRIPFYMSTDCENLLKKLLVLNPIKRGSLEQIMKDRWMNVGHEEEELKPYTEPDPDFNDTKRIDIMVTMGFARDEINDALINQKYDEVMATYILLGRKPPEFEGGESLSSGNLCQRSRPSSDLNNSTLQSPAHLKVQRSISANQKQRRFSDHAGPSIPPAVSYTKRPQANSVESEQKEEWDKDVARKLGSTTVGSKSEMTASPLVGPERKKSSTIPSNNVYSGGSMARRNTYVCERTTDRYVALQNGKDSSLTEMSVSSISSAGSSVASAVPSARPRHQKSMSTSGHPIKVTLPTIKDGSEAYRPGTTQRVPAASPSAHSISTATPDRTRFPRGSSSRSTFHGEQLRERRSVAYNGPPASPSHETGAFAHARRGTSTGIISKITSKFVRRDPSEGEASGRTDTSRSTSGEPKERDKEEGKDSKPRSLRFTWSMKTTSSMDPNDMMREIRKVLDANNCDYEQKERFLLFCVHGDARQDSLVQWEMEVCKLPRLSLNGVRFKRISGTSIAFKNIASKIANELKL
T3 sequence (P22607 23-806): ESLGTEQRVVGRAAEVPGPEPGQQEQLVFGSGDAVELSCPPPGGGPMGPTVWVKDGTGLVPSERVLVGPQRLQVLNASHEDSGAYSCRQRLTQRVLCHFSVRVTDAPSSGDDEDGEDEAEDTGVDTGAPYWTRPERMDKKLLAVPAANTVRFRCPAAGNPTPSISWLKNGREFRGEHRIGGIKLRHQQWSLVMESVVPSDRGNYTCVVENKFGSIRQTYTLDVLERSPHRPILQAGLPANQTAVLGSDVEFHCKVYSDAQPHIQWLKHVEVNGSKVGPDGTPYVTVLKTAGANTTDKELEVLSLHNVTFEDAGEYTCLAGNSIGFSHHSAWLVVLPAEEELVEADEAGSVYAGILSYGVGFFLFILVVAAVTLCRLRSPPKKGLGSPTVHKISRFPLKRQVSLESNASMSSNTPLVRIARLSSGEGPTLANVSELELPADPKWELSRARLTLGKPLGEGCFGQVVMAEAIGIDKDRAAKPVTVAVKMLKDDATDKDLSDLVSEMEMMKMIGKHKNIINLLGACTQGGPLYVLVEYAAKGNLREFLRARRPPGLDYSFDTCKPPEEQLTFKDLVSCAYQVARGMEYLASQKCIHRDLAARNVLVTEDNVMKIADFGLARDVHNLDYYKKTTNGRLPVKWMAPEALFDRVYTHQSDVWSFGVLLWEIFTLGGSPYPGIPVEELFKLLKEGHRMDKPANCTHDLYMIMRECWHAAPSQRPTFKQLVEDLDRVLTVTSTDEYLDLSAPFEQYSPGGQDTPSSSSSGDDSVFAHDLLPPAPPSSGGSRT

On to `COc1ccc2c(c1OC)c(=O)n1c3ccc(O)cc3c3ccnc2c31` [MW01, 5-Hydroxy-10,11-dimethoxy-9H-benzo[c]indolo[3,2,1-ij][1,5]naphthyridin-9-one], for which the inhibition (usually the relative decrease from the control value, in per cent) at 1 µM at EGFR (ErbB1) G719S was determined as 5%; on EPHA1, 9%; on FGFR3, 4%; on LRRK2 R1441C it was 83%; on MAPK3 (ERK1) it was 14%; on MARK1 (MARK) it was 4%. Also, at PRKACA (PKA), the inhibition at 1 µM was determined as 6%. Moreover, the inhibition at 10 µM worked out at 14% on EGFR (ErbB1) G719S; 16% on EPHA1; 8% on FGFR3; 86% at LRRK2 R1441C; 4% on MAPK3 (ERK1); 6% on MARK1 (MARK). The inhibition at 10 µM on PRKACA (PKA) turned out to be 17%.

With `COc1ccc2cc3c(N)nn(C(=O)c4cccc(N(C)C)c4)c3nc2c1` [MW05, (3-Amino-7-methoxypyrazolo[3,4-b]quinolin-1-yl)-[3-(dimethylamino)phenyl]methanone], the inhibition at 1 µM is 4% on EGFR (ErbB1) G719S; 11% at EPHA1; 1% at FGFR3; -2% on LRRK2 R1441C; 14% on MAPK3 (ERK1); 3% on MARK1 (MARK). For the same compound, the inhibition at 1 µM on PRKACA (PKA) came to 12%. Further, the inhibition at 10 µM was -5% at EGFR (ErbB1) G719S; -5% on EPHA1; -8% at FGFR3; 3% at LRRK2 R1441C; 11% at MAPK3 (ERK1); -5% at MARK1 (MARK). Also, the inhibition at 10 µM on PRKACA (PKA) is -15%.
